# ChEMBL document CHEMBL1201862, “PubChem BioAssay data set” (2004)
# Active and inactive are the calls of the source.
# How the values were obtained:
# [1] = human group III sPLA2 inhibitors, dose response, biochemical, QFRET, IC50 (AID 743457);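 note: green fluorescence rise as the enzyme cleaves BODIPY PC-A2 in liposomes; potency for inhibition of the enzyme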
# [2] = biological target: Galanin receptor type 3 (Homo sapiens, UniProt O60755); test: Fluorescence-based cell-based primary high throughput dose response assay to identify antagonists of the Galanin Receptor 3 (GalR3).; type: functional
# [3] = cells; type: functional, cell-based; settings: HEK-CNG
# [4] = biological target: Beta-galactosidase (Escherichia coli, UniProt Q8VNN2); test: Dose response counterscreen for EBI2 assay utilizing the enzyme, b-galactosidase.; type: functional
# [5] = A549 cell cytotoxicity, dose response, cytotoxicity control, plate reader, cherry-pick, antagonist series (AID 743412); type: functional, cell-based
# [6] = HepG2 cell cytotoxicity, dose response, cytotoxicity control, plate reader, cherry-pick, antagonist series (AID 743416); type: functional, cell-based
# [7] = LGR2 antagonists, dose response, cell-based, HEK293, CRE-luciferase reporter, cherry pick, set 2 (AID 743343); type: functional;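 note: transfected cells were stimulated with diluted bursicon conditioned medium after compound addition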
# [8] = MC4R antagonists, dose response, counter-screen for LGR2 antagonist project, cell-based, plate reader, cherry pick (AID 743444); type: functional;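 note: transfected HEK 293 cells stimulated with alpha-MSH peptide; potency of inhibitors of the alpha-MSH evoked signal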
# [9] = HEK293 cell cytotoxicity, dose response, cytotoxicity control, plate reader, cherry-picked samples (AID 743446); type: functional, cell-based
# [10] = biological target: Mu-type opioid receptor (Homo sapiens, UniProt P35372); type: functional, cell-based;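 note: U2OS cells with beta-arrestin recruitment to OPRM1 by beta-gal complementation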
# [11] = biological target: 5-hydroxytryptamine receptor 2A (Mus musculus, UniProt P35363); type: functional, cell-based;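 note: CHO-K1 cells with tagged receptor and beta-arrestin; agonist potency measured as compound-induced activation of the receptor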
# [12] = biological target: ADP-ribosylation factor GTPase-activating protein 1 (Rattus norvegicus, UniProt Q62848); test: Fluorescence polarization-based biochemical high throughput dose response screening assay to identify inhibitors of ADP-ribosylation factor GTPase activating protein 1 (ARFGAP1).; type: functional
# [13] = biological target: T1, Sentrin-specific protease 8 (Homo sapiens, UniProt Q96LD8); type: functional
# T1 sequence (Q96LD8 whole entry): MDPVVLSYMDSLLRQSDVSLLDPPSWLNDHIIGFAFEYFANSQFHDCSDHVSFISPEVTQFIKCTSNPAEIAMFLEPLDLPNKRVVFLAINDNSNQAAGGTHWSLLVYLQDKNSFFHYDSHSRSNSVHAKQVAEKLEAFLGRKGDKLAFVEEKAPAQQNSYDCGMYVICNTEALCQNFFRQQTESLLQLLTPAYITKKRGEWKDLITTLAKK
# [14] = biological target: T1, Sentrin-specific protease 8; type: functional; remark: listed apart in the source
# [15] = biological target: Induced myeloid leukemia cell differentiation protein Mcl-1 (Homo sapiens, UniProt Q07820); type: functional
# [16] = biological target: T2, Small ubiquitin-related modifier 1 (Homo sapiens, UniProt P63165); test: inhibitors of SUMO1 peptide binding, dose response, biochemical, fluorescence polarization, uHTS hits (AID 624382); type: functional; settings: read-out: IC50_Mean
# [17] = biological target: T2, Small ubiquitin-related modifier 1; test: inhibitors of SUMO1 partner interactions, dose response, biochemical, FRET (AID 624383); type: functional; settings: read-out: IC50_Mean
# [18] = system: INS1; test: beta cell apoptosis inhibitors, cytokine rescue, dose response, luminescence, retest (AID 449756); type: functional, cell-based; settings: Rattus norvegicus;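 note: cell death triggered by IL-1 beta plus TNF-alpha plus IFN-gamma mixture; protective hits raise ATP signal compared with cytokine alone wells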
# [19] = Shn3 3'UTR reporter inhibitors, dose response, cell-based, Clone20 osteoblasts, firefly luciferase, cherry-picked (AID 624132); type: functional;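 note: firefly luciferase luminescence from reporter carrying the Shn3 3'UTR in osteoblasts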
# [20] = HepG2 cell cytotoxicity, dose response, cytotoxicity control for Shn3 inhibitor project, CellTiter-Glo, cherry-picked (AID 624134); type: functional, cell-based
# [21] = control 3'UTR Renilla luciferase suppression, dose response, counter-screen for Shn3 inhibitor project, cell-based, Clone20-Shn3RL, cherry-picked (AID 624133); type: functional
# [22] = biological target: T3, COUP transcription factor 2 (Homo sapiens, UniProt P24468); test: Luminescence-based cell-based high throughput dose response assay to identify inhibitors of COUP-TFII (NR2F2).; type: functional;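 note: HEK293 cells transiently cotransfected with COUP-TFII expression vector and reporter; luciferase reporter luminescence driven by COUP-TFII from the pX2-168 reporter plasmid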
# T3 sequence (P24468 whole entry): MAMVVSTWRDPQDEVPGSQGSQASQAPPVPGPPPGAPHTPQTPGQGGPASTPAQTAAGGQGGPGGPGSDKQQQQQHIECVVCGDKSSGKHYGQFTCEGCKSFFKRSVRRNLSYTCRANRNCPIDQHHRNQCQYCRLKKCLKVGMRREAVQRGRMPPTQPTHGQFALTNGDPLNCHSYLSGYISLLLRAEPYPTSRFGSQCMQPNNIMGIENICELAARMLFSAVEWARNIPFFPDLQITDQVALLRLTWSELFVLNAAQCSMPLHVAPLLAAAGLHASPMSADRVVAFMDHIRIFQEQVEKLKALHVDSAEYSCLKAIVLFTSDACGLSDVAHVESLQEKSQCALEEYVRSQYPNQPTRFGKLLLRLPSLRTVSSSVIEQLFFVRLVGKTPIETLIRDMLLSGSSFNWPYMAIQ
# [23] = cells; type: functional, cell-based
# [24] = biological target: T4, Trace amine-associated receptor 1 (Homo sapiens, UniProt Q96RJ0); test: Fluorescence-based cell-based high throughput dose response assay to identify agonists of the human trace amine associated receptor 1 (TAAR1).; type: functional
# T4 sequence (Q96RJ0 whole entry): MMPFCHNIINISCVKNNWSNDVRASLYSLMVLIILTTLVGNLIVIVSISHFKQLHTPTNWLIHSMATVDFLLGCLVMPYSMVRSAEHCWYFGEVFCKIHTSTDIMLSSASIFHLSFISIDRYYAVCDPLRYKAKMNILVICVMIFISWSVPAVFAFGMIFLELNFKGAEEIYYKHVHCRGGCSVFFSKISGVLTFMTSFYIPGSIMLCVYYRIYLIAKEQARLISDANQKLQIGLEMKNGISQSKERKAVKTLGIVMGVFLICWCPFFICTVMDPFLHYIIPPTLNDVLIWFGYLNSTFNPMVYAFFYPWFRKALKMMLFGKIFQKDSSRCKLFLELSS
# [25] = biological target: T4, Trace amine-associated receptor 1; test: Counterscreen for agonists of the human trace amine associated receptor 1 (hTAAR1): Fluorescence-based cell-based high throughput dose response assay to identify hTAAR1 agonist that also desensitize TAAR1 receptor response.; type: functional
# [26] = cells; type: functional, cell-based; remark: listed apart in the source
# [27] = biological target: Beta Lactamase (Pseudomonas aeruginosa, UniProt Q932Y6);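 note: confirmatory high-throughput screen measuring VIM-2 metallo-beta-lactamase inhibition by epi-absorbance in dose response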
# [28] = biological target: Beta-lactamase (Pseudomonas aeruginosa, UniProt Q79MP6);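 note: biochemical dose-response test of metallo-beta-lactamase enzyme inhibition, read out by epi-absorbance; purified recombinant IMP-1 metallo-beta-lactamase with nitrocefin as substrate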
# [29] = biological target: Beta-lactamase (Salmonella choleraesuis (strain SC-B67), UniProt Q5J463)
# [30] = biological target: 26S proteasome non-ATPase regulatory subunit 14 (Homo sapiens, UniProt O00487); test: inhibition of proteasome subunit RPN11 – biochemical, fluorescence polarization, uHTS hits, confirmation (AID 602368); type: functional
# [31] = biological target: 72 kDa type IV collagenase (Homo sapiens, UniProt P08253); test: Dose Response validation of uHTS RPN11 inhibitor hits using a MMP-2 Fluorescence assay.; type: functional
# [32] = biological target: Prothrombin (Bos taurus, UniProt P00735); test: thrombin inhibition, dose response, biochemical, fluorescence polarization, uHTS hits (AID 602369); type: functional
# [33] = biological target: T5, Low molecular weight phosphotyrosine protein phosphatase (Homo sapiens, UniProt P24666); type: functional; settings: read-out: IC50_Mean
# T5 sequence (P24666 whole entry): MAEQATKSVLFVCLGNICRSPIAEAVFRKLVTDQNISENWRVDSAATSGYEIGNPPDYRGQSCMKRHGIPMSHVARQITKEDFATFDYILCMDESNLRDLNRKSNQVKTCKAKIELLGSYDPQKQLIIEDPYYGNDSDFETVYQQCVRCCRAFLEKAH
# [34] = biological target: T5, Low molecular weight phosphotyrosine protein phosphatase; type: functional; settings: read-out: IC50_Mean; remark: listed apart in the source
# [35] = biological target: T6, Voltage-gated N-type calcium channel alpha-1B subunit/Amyloid beta A4 precursor protein-binding family A member 1 (Homo sapiens, UniProt Q00975+Q02410); type: protein assay
# [36] = biological target: T6, Voltage-gated N-type calcium channel alpha-1B subunit/Amyloid beta A4 precursor protein-binding family A member 1; type: protein assay; remark: listed apart in the source
# [37] = biological target: T7, Rac GTPase-activating protein 1 (Homo sapiens, UniProt Q9H0H5); test: MgcRacGAP GTPase-activating activity inhibitors, confirmation, biochemical, ADP Hunter fluorescence, primary and confirmatory (AID 624330); type: functional
# T7 sequence (Q9H0H5 whole entry): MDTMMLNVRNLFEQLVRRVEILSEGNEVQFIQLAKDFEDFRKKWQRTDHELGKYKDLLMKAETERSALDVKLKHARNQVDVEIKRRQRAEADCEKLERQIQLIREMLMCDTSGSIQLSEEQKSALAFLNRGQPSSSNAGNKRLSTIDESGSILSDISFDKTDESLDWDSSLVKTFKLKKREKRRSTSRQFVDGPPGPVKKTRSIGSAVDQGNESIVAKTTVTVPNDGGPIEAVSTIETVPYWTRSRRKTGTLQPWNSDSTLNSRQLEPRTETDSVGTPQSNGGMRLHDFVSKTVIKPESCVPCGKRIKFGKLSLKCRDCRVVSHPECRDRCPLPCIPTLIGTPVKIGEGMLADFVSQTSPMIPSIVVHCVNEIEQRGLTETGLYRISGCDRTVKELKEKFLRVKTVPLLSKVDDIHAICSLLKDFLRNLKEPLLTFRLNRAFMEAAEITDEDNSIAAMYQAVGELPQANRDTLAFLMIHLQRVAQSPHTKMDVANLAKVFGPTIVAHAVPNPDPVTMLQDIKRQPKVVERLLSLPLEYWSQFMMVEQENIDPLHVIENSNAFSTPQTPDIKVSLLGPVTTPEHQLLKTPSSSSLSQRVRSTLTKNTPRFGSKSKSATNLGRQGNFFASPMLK
# [38] = cells; type: functional, cell-based; remark: listed apart in the source
# [39] = biological target: T8, Nuclear receptor subfamily 0 group B member 1 (Homo sapiens, UniProt P51843); type: functional, cell-based;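 note: HEK293T cells transfected with SF-1 and DAX-1 plus StAR promoter luciferase reporter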
# T8 sequence (P51843 whole entry): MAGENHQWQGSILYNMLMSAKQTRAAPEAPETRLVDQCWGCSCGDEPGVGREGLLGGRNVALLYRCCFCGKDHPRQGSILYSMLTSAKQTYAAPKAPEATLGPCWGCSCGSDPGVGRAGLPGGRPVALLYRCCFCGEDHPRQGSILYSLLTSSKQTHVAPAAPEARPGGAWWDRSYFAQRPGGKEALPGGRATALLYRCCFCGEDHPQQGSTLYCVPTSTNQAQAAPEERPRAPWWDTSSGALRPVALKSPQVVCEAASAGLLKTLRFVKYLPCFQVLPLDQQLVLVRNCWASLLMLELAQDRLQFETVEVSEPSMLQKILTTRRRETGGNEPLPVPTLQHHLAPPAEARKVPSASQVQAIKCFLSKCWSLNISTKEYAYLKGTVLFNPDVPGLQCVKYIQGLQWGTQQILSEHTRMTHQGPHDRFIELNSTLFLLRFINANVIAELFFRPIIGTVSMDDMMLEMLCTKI
# T2 sequence (P63165 whole entry): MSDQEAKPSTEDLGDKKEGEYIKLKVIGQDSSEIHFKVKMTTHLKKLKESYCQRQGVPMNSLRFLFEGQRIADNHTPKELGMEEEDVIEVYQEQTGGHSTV
# Chain of Beta-lactamase (Salmonella choleraesuis (strain SC-B67), UniProt Q5J463) (Q5J463 whole entry): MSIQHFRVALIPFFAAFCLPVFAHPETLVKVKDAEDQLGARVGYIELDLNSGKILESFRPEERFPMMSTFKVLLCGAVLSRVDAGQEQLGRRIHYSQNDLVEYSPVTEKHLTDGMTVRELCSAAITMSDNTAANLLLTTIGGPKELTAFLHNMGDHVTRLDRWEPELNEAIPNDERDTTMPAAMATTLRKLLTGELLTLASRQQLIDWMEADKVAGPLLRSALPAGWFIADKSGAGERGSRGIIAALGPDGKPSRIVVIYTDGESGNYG
# Chain of Beta-galactosidase (Q8VNN2 whole entry): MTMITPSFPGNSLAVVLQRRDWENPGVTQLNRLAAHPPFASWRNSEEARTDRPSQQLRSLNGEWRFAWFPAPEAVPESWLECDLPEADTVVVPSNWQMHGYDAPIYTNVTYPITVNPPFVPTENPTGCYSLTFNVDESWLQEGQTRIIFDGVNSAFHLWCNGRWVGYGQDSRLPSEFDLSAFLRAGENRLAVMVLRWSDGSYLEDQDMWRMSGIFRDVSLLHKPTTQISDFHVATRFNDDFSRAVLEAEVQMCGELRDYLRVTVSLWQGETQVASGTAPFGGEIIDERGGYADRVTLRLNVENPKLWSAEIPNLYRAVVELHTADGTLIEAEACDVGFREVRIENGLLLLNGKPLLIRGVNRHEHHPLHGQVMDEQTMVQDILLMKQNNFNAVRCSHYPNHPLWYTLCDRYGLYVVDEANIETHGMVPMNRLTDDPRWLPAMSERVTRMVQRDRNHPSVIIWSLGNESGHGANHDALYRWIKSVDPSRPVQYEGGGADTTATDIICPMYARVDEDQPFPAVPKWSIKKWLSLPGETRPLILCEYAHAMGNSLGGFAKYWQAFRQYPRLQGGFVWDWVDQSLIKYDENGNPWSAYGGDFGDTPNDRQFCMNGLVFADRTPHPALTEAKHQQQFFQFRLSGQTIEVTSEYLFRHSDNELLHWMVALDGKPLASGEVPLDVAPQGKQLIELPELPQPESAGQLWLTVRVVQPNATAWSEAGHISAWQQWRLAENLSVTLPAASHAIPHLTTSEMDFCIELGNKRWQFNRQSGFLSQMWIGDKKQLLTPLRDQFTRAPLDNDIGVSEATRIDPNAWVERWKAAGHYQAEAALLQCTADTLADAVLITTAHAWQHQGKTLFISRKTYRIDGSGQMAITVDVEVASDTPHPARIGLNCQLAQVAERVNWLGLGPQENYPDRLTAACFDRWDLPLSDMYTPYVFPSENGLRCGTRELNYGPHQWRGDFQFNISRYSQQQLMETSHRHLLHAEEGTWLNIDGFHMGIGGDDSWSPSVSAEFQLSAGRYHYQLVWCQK
# Chain of Beta-lactamase (Pseudomonas aeruginosa, UniProt Q79MP6) (Q79MP6 whole entry): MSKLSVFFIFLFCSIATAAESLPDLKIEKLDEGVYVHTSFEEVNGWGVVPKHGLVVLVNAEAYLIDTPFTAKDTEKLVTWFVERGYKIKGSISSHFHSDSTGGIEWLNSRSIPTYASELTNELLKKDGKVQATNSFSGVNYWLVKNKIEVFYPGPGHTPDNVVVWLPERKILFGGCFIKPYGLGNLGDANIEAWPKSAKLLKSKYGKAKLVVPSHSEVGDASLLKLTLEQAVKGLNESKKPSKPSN
# Chain of ADP-ribosylation factor GTPase-activating protein 1 (Q62848 whole entry): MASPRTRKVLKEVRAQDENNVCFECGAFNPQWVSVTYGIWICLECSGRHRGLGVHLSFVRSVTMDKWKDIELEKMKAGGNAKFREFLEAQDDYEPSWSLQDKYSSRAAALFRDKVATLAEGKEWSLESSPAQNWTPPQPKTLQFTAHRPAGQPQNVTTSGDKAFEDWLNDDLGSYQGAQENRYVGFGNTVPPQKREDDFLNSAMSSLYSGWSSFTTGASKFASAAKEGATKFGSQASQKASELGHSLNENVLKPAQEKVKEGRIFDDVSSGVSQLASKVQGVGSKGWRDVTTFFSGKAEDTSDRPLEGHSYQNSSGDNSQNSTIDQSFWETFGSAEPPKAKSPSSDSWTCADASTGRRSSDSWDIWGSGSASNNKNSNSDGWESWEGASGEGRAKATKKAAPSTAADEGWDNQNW
# Chain of Beta Lactamase (Q932Y6 whole entry): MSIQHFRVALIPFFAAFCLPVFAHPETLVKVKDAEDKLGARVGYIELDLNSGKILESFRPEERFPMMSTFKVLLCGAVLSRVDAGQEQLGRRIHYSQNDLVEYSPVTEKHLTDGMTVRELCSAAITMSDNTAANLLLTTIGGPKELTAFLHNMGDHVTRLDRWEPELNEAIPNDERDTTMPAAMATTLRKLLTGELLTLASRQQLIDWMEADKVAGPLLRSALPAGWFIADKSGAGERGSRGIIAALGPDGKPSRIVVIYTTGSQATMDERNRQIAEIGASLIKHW
# Chain of Galanin receptor type 3 (O60755 whole entry): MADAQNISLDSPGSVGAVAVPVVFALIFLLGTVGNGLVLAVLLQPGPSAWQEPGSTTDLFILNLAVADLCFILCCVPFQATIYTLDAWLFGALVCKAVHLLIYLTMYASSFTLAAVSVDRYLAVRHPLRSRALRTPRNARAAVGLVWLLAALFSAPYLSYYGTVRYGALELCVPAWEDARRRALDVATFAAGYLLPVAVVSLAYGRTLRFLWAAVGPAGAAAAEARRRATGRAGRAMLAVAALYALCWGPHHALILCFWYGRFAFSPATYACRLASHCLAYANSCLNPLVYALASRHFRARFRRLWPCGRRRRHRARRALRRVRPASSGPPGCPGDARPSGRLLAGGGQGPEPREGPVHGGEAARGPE
# Chain of 72 kDa type IV collagenase (P08253 whole entry): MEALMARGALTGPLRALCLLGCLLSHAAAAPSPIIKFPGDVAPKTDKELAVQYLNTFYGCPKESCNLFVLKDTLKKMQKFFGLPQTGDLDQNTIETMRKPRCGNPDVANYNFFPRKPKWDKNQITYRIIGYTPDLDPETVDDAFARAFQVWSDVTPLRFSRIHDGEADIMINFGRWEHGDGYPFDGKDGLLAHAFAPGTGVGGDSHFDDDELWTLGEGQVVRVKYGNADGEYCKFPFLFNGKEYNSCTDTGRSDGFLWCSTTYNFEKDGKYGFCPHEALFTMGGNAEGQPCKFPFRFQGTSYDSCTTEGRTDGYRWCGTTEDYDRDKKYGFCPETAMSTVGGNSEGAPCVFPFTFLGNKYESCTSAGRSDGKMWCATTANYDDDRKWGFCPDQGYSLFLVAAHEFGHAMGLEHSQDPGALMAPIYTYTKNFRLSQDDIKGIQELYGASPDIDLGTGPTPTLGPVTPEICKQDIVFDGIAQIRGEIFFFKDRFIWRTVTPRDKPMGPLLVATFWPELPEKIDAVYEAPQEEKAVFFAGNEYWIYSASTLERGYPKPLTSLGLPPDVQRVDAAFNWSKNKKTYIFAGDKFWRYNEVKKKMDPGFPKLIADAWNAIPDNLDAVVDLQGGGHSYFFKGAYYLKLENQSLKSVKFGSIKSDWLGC
# Chain of 26S proteasome non-ATPase regulatory subunit 14 (O00487 whole entry): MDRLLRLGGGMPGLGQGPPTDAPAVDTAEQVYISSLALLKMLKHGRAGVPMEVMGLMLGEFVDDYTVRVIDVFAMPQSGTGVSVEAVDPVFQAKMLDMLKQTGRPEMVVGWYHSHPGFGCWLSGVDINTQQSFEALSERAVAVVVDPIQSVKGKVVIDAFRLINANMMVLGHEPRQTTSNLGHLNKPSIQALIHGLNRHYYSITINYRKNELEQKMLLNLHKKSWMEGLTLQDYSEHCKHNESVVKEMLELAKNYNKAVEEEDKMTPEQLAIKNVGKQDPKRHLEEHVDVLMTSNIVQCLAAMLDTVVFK
# Chain of Induced myeloid leukemia cell differentiation protein Mcl-1 (Q07820 whole entry): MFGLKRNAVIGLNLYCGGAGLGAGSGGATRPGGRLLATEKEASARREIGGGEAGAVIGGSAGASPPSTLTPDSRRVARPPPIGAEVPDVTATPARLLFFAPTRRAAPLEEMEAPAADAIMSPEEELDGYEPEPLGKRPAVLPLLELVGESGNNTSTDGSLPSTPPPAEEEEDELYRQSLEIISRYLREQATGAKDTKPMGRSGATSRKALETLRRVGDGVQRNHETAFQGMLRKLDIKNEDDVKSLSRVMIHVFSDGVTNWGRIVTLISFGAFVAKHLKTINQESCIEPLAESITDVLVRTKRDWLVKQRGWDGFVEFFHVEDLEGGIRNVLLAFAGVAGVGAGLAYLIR
# Chain of 5-hydroxytryptamine receptor 2A (P35363 whole entry): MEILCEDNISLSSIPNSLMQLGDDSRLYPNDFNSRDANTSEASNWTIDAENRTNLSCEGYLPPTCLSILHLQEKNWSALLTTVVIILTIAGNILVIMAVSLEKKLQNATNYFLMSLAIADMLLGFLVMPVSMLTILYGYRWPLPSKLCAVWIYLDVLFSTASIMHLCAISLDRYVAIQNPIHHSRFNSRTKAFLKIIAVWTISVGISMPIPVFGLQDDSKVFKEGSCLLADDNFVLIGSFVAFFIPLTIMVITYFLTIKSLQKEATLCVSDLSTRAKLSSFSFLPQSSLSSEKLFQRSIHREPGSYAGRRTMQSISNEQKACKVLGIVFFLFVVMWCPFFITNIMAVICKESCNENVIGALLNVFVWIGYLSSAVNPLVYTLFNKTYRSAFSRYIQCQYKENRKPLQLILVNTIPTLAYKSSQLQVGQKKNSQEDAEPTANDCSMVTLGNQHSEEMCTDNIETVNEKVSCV
# Chain of Mu-type opioid receptor (P35372 whole entry): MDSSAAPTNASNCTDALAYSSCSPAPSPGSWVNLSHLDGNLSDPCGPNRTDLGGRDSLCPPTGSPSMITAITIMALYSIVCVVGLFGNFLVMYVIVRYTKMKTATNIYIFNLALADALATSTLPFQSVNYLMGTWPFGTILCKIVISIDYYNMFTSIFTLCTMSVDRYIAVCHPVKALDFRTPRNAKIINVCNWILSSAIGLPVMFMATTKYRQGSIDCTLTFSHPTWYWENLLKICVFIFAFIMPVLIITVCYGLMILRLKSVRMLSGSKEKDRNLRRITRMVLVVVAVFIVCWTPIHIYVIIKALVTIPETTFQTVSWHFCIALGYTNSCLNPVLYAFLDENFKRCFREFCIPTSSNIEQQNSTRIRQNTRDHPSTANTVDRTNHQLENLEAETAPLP
compound,measurement,setting,value
Cc1c(Cl)c(C(=O)NN=C(S)NCc2ccco2)nn1C,IC50,[1],> 122 µM (inactive)
Cc1ccc(-c2sc(C(=O)NN)c(C)c2C#N)cc1,IC50,[2],> 29.9 µM (inactive)
same,EC50,[3],> 29.9 µM (inactive)
O=C(CSc1ccc(Br)cc1)N1CCN(C(=O)c2ccco2)CC1,IC50,[4],> 80 µM (inactive)
Cc1ccc(-c2cnc3c(Cl)c(C)nn3c2)cc1,AC50,[5],5.87 µM (active)
same,AC50,[6],40.8 µM (active)
same,AC50,[7],7.53 µM (active)
same,AC50,[8],8.19 µM (active)
same,AC50,[9],31.5 µM (active)
C/C(=C\c1ccccc1)CN1CCN(c2ccccc2)CC1,EC50,[10],92.5 µM (inactive)
same,EC50,[11],76.1 µM (inactive)
COc1cc(/C=C2\SC(N)=NC2=O)ccc1OCC(=O)Nc1ccc(C)cc1,IC50,[12],28.3 µM (inactive)
Cc1cccc(N2C(=O)/C(=C\c3ccc(C(=O)O)cc3)c3ccccc3C2=O)c1,IC50,[13],> 100 µM (inactive)
same,IC50,[14],6.45 µM (active)
O=C(NC1CC1)c1cc(-c2ccco2)nc2ccccc12,IC50,[15],1.71 µM (active)
same,IC50,[16],> 66.6 µM (inactive)
same,IC50,[17],8.06 µM (active)
Cc1ccccc1OCCCN1C(=O)C(=O)c2cccc(C)c21,IC50,[1],> 122 µM (inactive)
O=C(CSc1nnc(Cn2nnc3ccccc32)o1)N(Cc1ccc(Cl)cc1)c1ccccc1,AC50,[18],4.83 µM (active)
same,AC50,[19],2.29 µM (active)
same,AC50,[20],6.74 µM (active)
same,AC50,[21],11.9 µM (active)
same,IC50,[2],1.11 µM (active)
same,EC50,[3],> 29.9 µM (inactive)
same,IC50,[22],4.19 µM (active)
O=C(Cn1c2ccc(F)cc2c2nc3n(c(=O)c21)CCS3)Nc1ccccc1C(F)(F)F,IC50,[12],50.1 µM (inactive)
O=C(NCCc1ccccc1Cl)[C@@H]1CCCN1C(=O)[C@@H](NS(=O)(=O)c1ccc(F)cc1F)c1ccccc1,IC50,[23],> 29.9 µM (inactive)
same,EC50,[24],12.4 µM (inactive)
same,IC50,[25],5.69 µM (active)
same,EC50,[26],> 29.9 µM (inactive)
COc1ccc(/C(C)=N/NC(=O)c2nnn(-c3nonc3N)c2-c2ccccc2)cc1,IC50,[27],> 59.6 µM (inactive)
same,IC50,[28],> 59.6 µM (inactive)
same,IC50,[29],> 59.6 µM (inactive)
same,IC50,[30],30.2 µM (active)
same,IC50,[31],8.15 µM (active)
same,IC50,[32],> 100 µM (inactive)
same,IC50,[33],> 80 µM (inactive)
same,IC50,[34],35.2 µM (inactive)
CC(C)n1cc(/C=N/Nc2ccc(Cl)c(C(=O)O)c2)c2ccccc21,IC50,[27],> 59.6 µM (inactive)
same,IC50,[35],41.8 µM (active)
same,IC50,[36],> 50 µM (inactive)
same,IC50,[28],> 59.6 µM (inactive)
same,IC50,[29],> 59.6 µM (inactive)
same,IC50,[16],> 66.6 µM (inactive)
same,IC50,[17],3.26 µM (active)
same,IC50,[37],102 µM (active)
Cc1cc(C)c(S(=O)(=O)N2CCN(C(=O)C3COc4ccccc4O3)CC2)c(C)c1 (centres undefined),IC50,[4],> 80 µM (inactive)
CCC1CCCCN1C(=O)CCS(=O)(=O)c1ccccc1 (centres undefined),IC50,[38],> 67.6 µM (inactive)
same,IC50,[39],> 67.6 µM (inactive)
